Reference: publication PMC5336612, “Therapeutic effects of different doses of polyethylene glycosylated porcine glucagon-like peptide-2 on ulcerative colitis in male rats” (BMC Gastroenterology, 2017)
“And” between values parts separate entries of the source, which are not always exact repeats. Equal entries are not always repeated. Where two headings read alike, the source gives them in different places. Marks after values point to notes of the source that are not given here. Where no end group is shown, it is not given here.

Columns and labels:
[1] = rat, in vivo; cited from earlier work
[2] = in vivo, cited from earlier work
[3] = system: experimental rat model of ulcerative colitis (DSS); test: Growth performance of DSS colitis rats (body weight, intestinal and colonic length and weight); assay type: in vivo
Method: Animal studies were conducted in accordance with the guidelines of the Zhejiang Farm Animal Welfare Council of China and approved by the ethics committee of Zhejiang Academy of Agricultural Sciences. Thirty-five male Sprague–Dawley rats were allocated into five treatments: control, DSS, DSS + PEG–pGLP-2(L), DSS + PEG–pGLP-2(M) and DSS + PEG–pGLP-2(H). Each treatment was performed in seven replicates on one rat. The rats were housed in a plastic bottom, wire-lid cages, maintained on a 12 h: 12 h light–dark cycle and allowed to acclimatise to the animal facility for 3 days. Rats in control group received only water; other rats were fed with 5% (w/v) DSS through their drinking water for 6 days from the first day of experiment, followed by 2 days of water consumption. The rats from the DSS + PEG–pGLP-2(L), DSS + PEG–pGLP-2(M) and DSS + PEG–pGLP-2(H) groups were intraperitoneally administered with 12.5, 25 and 100 nmol/kg PEG–pGLP-2, respectively, in 0.3 mL of saline solution daily from day 1 to day 6 of the trial. The rats in the control and DSS groups were administered with the same volume of saline solution. During the experimental period, behaviour and body weight were monitored daily. On day 8, all rats were anesthetised and sacrificed to collect their intestinal sample.
Samples collection was prepared as previously described. The segment from the pylorus to the Trietz ligament and from the ileocecal valve to the rectum was considered the duodenum and colon, respectively; these segments were cut free from their mesentery and immediately placed on ice. The duodenum and colon were cleaned of luminal contents, weighed and measured with a balance and a ruler. The middle segments (1 cm) of duodenum and colon were fixed in 10% formalin for 48 h and embedded in paraffin using standard techniques for histology. One centimetre of the distal segment of colon was collected for RNA isolation, which was immediately placed in 1 mL of RNA locker.

[4] = system: colon of DSS colitis rats; test: Colonic morphology and colonic damage score (histology); assay type: in vivo, rat; details: for Colonic damage score (CDS) of colon / Colon morphological structures: DSS colitis rats; for Colonic damage score (CDS) of colon: compared with DSS group, Fig. 1f; for colonic damage score: extent / colonic damage score: inflammation: grade 0-3; for colonic damage score: extent / colonic damage score: inflammation / colonic damage score: percent involvement / colonic damage score: crypt demage: individual rats, raw data; for colonic damage score: percent involvement: grade (1) 1-25% to (4) 76-100%; for colonic damage score: crypt demage: scale 0-4
Method: Histology was prepared as previously described. The paraffin-embedded sections were cut at 4 μm thickness and stained with haematoxylin and eosin. Duodenum villus-plus-crypt height was imaged using an Olympus DP-71 digital camera, and quantification was performed using an image processing system. Approximately 12 longitudinally oriented villi were measured from each H&E-stained section to make n = 1. All measurements were performed in a blinded manner. Colonic damage score (CDS), was evaluated in a blinded manner in tissue sections based on a grade scale ranging from 0 to 3 to measure the amount and depth of inflammation. The amount of crypt damage or regeneration was measured in a scale of 0–4, as indicated in Dieleman et al.. These changes were also quantified in terms of the percentage involvement of the disease process: (1) 1–25%, (2) 26–50%, (3) 51–75% and (4) 76–100%. Each section was separately scored for each feature by establishing the product of the grade for that feature and the percentage involvement. The sum of the products of the four scores was the CDS for each rat.

IL-1 = test: Real-time PCR expression in colon; assay type: in vivo, rat; details: DSS colitis rats, compared with DSS group, RT-PCR
Method: (§1) Total RNA was isolated using RNAiso Plus kits following the manufacturers’ instructions. A 2 μL aliquot of the total RNA was used for first-strand cDNA synthesis using PrimeScript® RT-reagent Kit with gDNA Eraser. Real-time PCR was carried out with ABI plus one (Life Technologies, Carlsbad, CA, USA) using SYBR Premix Ex TaqTM. The primers used were in Table 1. RT-PCR analysis was performed with an ABI Step One Plus Real-Time PCR System (Applied Biosystems, Inc.) using SYBR® Premix Ex TaqTM. PCR reactions were performed in triplicate under the following conditions: 95 °C for 30 s; 40 cycles of 95 °C for 5 s and 60 °C for 30 s. Fluorescent data for quantification were collected at the end of each cycle. Melting curve analysis was performed at 55–95 °C to verify the single product generation at the end of the assay. Standard curves were generated based on the data obtained from the standards of the 2–2^−6 dilution series template. Standard curve analysis was performed by using Step One Software (v2.2, Applied Biosystems, Inc.). Data were normalised to GADPH using the 2^−△△Ct quantitation method.

IFN-γ = test: Real-time PCR expression in colon; assay type: in vivo, rat; details: DSS colitis rats; 25 nmol/kg i.p. daily d1-6 (M); compared with DSS group; RT-PCR
Method: as §1

IL-7 = test: Real-time PCR expression in colon; assay type: in vivo, rat; details: DSS colitis rats, compared with DSS group, RT-PCR
Method: as §1

TNF-α = test: Real-time PCR expression in colon; assay type: in vivo, rat; details: DSS colitis rats, compared with DSS group, RT-PCR
Method: as §1

Claudin-1 = test: Real-time PCR expression in colon; assay type: in vivo, rat; details: DSS colitis rats, compared with DSS group, RT-PCR
Method: as §1

Occludin = test: Real-time PCR expression in colon; assay type: in vivo, rat; details: DSS colitis rats, compared with DSS group, RT-PCR
Method: as §1

IL-6 = test: Real-time PCR expression in colon; assay type: in vivo, rat; details: DSS colitis rats, among the five groups, RT-PCR
Method: as §1

ZO-1 = test: Real-time PCR expression in colon; assay type: in vivo, rat; details: DSS colitis rats; 100 nmol/kg i.p. daily d1-6 (H); compared with DSS group; RT-PCR, 2^-ΔΔCt vs GADPH
Method: as §1

IL-10 = test: Real-time PCR expression in colon; assay type: in vivo, rat; details: DSS colitis rats, compared with DSS group, RT-PCR
Method: as §1

[5] = system: dipeptidyl peptidase-IV (DPP-IV); details: in DPP-IV in vitro; cited from earlier work
[6] = in vivo; cited from earlier work
[7] = design: method as in PMID 19773525; details: patient; cited from earlier work
[8] = 5% DSS colitis, male SD rats, 12.5 nmol/kg i.p. daily d1-6 (L), day 8, mean ± SD
[9] = 5% DSS colitis, male SD rats, 25 nmol/kg i.p. daily d1-6 (M), day 8, mean ± SD
[10] = 5% DSS colitis, male SD rats, 100 nmol/kg i.p. daily d1-6 (H), day 8, mean ± SD
[11] = DSS colitis rats, 12.5 nmol/kg i.p. daily d1-6 (L), individual rats, raw data
[12] = DSS colitis rats, 25 nmol/kg i.p. daily d1-6 (M), individual rats, raw data
[13] = DSS colitis rats, 100 nmol/kg i.p. daily d1-6 (H), individual rats, raw data
[14] = 12.5 nmol/kg i.p. daily d1-6 (L)
[15] = 100 nmol/kg i.p. daily d1-6 (H)

## HGDGSFSDEMNTVLDNLATRDFINWLLHTKITDSL [p[Gly^2]GLP-2, Porcine [Gly^2] GLP-2]
[1]
  half-life: 0.817 h

## PEG(2 k)-Lys-GLP-1: PEGylated glucagon-like peptide-1 of Lee et al.
[2]; iv
  half-life increase: 16 fold
[2]; sc
  half-life increase: 3.2 fold

## polyethylene glycosylated porcine glucagon-like peptide-2 (HGDGSFSDEMNTVLDNLATRDFINWLLHTKITDSL; also: mono-PEGylated with mPEG5k-SPA, site not given here; UniProt P01274 146-180, looked up, variant A2G) [PEG–pGLP-2]
[3]; [8]
  Body weight change: 21.45 ± 2.00^b %
  Colonic length: 14.74 ± 1.90^a cm
  Intestinal length: 94.50 ± 7.07 cm
[3]; [9]
  Body weight change: 21.46 ± 4.65^b %
  Colonic length: 14.48 cm
  Intestinal length: 99.10 ± 8.03 cm
[3]; [10]
  Body weight change: 20.63 ± 3.4^b %
  Colonic length: 13.42 cm
  Intestinal length: 99.56 ± 6.82 cm
[3]; [11]
  Colonic weight: 3.68 g and 1.94 g and 1.55 g and 1.6 g and 3.59 g and 2.4 g
  Intestinal length: 99.0 cm and 95.0 cm and 102.0 cm and 93.0 cm
  Intestinal weight: 8.25 g and 6.51 g and 7.68 g and 5.4 g and 8.63 g and 9.24 g
  final weight: 240 g and 217 g and 219 g and 157 g and 223 g
[3]; [12]
  Colonic weight: 3.22 g and 2.19 g and 2.7 g and 2.5 g and 3.3 g and 3 g
  Intestinal weight: 6 g and 6.93 g and 9 g and 8.4 g and 8.73 g and 7.5 g
  final weight: 220 g and 180 g and 246 g and 182 g and 230 g and 212 g
[3]; [13]
  Colonic length: 14.7 cm and 12.7 cm and 13.7 cm and 13.0 cm
  Colonic weight: 2.55 g and 2.37 g and 1.85 g and 2.2 g and 2.94 g
  Intestinal weight: 10 g and 7.62 g and 7.22 g and 8 g and 7.87 g and 9.26 g
  final weight: 221 g and 218 g and 214 g and 233 g and 219 g and 242 g
[4]; [14]
  Colonic damage score (CDS) of colon: significantly (p < 0.05) decreased
  colonic damage score: extent: 0.00 and 1.00
  colonic damage score: inflammation: 1.00 and 2.00
  colonic damage score: percent involvement: 0.00 and 1.00
  colonic damage score: crypt demage: 0.00 and 1.00
[4]; 25 nmol/kg i.p. daily d1-6 (M), Fig. 1d
  Colon morphological structures: almost normal with no damage
[4]; 25 nmol/kg i.p. daily d1-6 (M)
  Colonic damage score (CDS) of colon: significantly (p < 0.05) decreased
  colonic damage score: extent: 0.00 and 1.00
  colonic damage score: inflammation: 2.00 and 1.00
  colonic damage score: percent involvement: 0.00 and 1.00
  colonic damage score: crypt demage: 0.00 and 3.00 and 1.00
[4]; 100 nmol/kg i.p. daily d1-6 (H), Fig. 1e
  Colon morphological structures: almost normal with no damage
[4]; [15]
  Colonic damage score (CDS) of colon: significantly (p < 0.05) decreased
  colonic damage score: extent: 0.00
  colonic damage score: inflammation: 1.00 and 2.00
  colonic damage score: percent involvement: 0.00 and 1.00
  colonic damage score: crypt demage: 0.00 and 3.00
IL-1; [14]
  Expression of IL-1 in colon: significantly (p < 0.05) decreased
IL-1; 25 nmol/kg i.p. daily d1-6 (M)
  Expression of IL-1 in colon: significantly (p < 0.05) decreased
IL-1; [15]
  Expression of IL-1 in colon: significantly (p < 0.05) decreased
IFN-γ
  Expression of IFN-γ in colon: significantly (p < 0.05) decreased
IL-7; [14]
  Expression of IL-7 in colon: significantly (p < 0.05) decreased
IL-7; 25 nmol/kg i.p. daily d1-6 (M)
  Expression of IL-7 in colon: significantly (p < 0.05) decreased
IL-7; [15]
  Expression of IL-7 in colon: significantly (p < 0.05) decreased
TNF-α; [14]
  Expression of TNF-α in colon: significantly (p < 0.05) decreased
TNF-α; 25 nmol/kg i.p. daily d1-6 (M)
  Expression of TNF-α in colon: significantly (p < 0.05) decreased
TNF-α; [15]
  Expression of TNF-α in colon: significantly (p < 0.05) decreased
Claudin-1; 25 nmol/kg i.p. daily d1-6 (M)
  Expression of claudin-1 in colon: significantly (p < 0.05) decreased
Claudin-1; [15]
  Expression of claudin-1 in colon: significantly (p < 0.05) decreased
Occludin; 25 nmol/kg i.p. daily d1-6 (M)
  Expression of occludin in colon: significantly (p < 0.05) increased
Occludin; [15]
  Expression of occludin in colon: significantly (p < 0.05) increased
IL-6; [14]
  Expression of IL-6 in colon: No significant differences
IL-6; 25 nmol/kg i.p. daily d1-6 (M)
  Expression of IL-6 in colon: No significant differences
IL-6; [15]
  Expression of IL-6 in colon: No significant differences
ZO-1
  Expression of ZO-1 in colon: significantly (p < 0.05) increased
IL-10; [14]
  Expression of IL-10 in colon: significantly (p < 0.05) decreased
IL-10; 25 nmol/kg i.p. daily d1-6 (M)
  Expression of IL-10 in colon: significantly (p < 0.05) decreased
[5]
  half-life (t1/2) longer than that of pGLP-2: 16 fold
[1]
  half-life: 3.37 h
  t1/2: 3.38 h

## porcine glucagon-like peptide-2 (HADGSFSDEMNTVLDNLATRDFINWLLHTKITDSL; Glucagon-like peptide 2; UniProt P01274 146-180, looked up) [pGLP-2]
[6]
  half-life of intact pGLP-2: 8.4 min

## teduglutide
[7]
  t1/2: 2.99 h
